9 molecules from ChEMBL document CHEMBL1121932, “Structure-anti-Parkinson activity relationships in the aminoadamantanes. Influence of bridgehead substitution” (J Med Chem, 1982) can be followed below.

Series [1] concerns Mus musculus. The experiment in a line: Stimulation of spontaneous locomotor activity of compound was measured in mice at a dose of 0.05 mmol/kg). Type of series: functional. Set-up: unit not given here.
For series [2], the system named is Mus musculus. Put plainly: Stimulation of spontaneous locomotor activity of compound was measured in mice at a dose of 0.1 mmol/kg). The class given is functional.
Series [3] is described as follows: Partition coefficient (logP). Type of series: physicochemical. The following applies: octanol/water.
Series [4] deals with Mus musculus. The experiment in a line: Modification of circling behavior in mice with unilateral striatal lesions produced by 6-hydroxydopamine injection was measured at a dose of 0.2 mmol/kg. The class given is functional.
Series [5] concerns Mus musculus. Put plainly: Stimulation of spontaneous locomotor activity of compound was measured in mice at a dose of 0.4 mmol/kg). Type of series: functional.
The test system of series [6] is Mus musculus. Put plainly: Stimulation of spontaneous locomotor activity of compound was measured in mice at a dose of 0.2 mmol/kg). Type of series: functional.
Series [7] deals with Mus musculus. Put plainly: Modification of circling behavior in mice with unilateral striatal lesions produced by 6-hydroxydopamine injection was measured at a dose of 0.013 mmol/kg. Type of series: functional.
The subject of series [8] is Mus musculus. Put plainly: Modification of circling behavior in mice with unilateral striatal lesions produced by 6-hydroxydopamine injection was measured at a dose of 0.20 mmol/kg. The class given is functional.
Series [9] relates to Mus musculus. The experiment in a line: Stimulation of spontaneous locomotor activity of compound was measured in mice at a dose of 0.0125 mmol/kg). Type of series: functional.
For series [10], the system named is Mus musculus. Put plainly: Stimulation of spontaneous locomotor activity of compound was measured in mice at a dose of 0.10 mmol/kg). The class given is functional. Set-up: unit not given here.
Series [11] has as its system Mus musculus. The experiment in a line: Stimulation of spontaneous locomotor activity of compound was measured in mice at a dose of 0.20 mmol/kg). Type of series: functional.
Series [12] relates to Mus musculus. Put plainly: Modification of circling behavior in mice with unilateral striatal lesions produced by 6-hydroxydopamine injection was measured at a dose of 0.10 mmol/kg. Type of series: functional.
The test system of series [13] is Mus musculus. The experiment in a line: Modification of circling behavior in mice with unilateral striatal lesions produced by 6-hydroxydopamine injection was measured at a dose of 0.15 mmol/kg. Type of series: functional.
Series [14] has as its system Mus musculus. Put plainly: Stimulation of spontaneous locomotor activity of compound was measured in mice at a dose of 0.025 mmol/kg). The arrangement: unit not given here. Type of series: functional.
For series [15], the system named is Mus musculus. Put plainly: Modification of circling behavior in mice with unilateral striatal lesions produced by 6-hydroxydopamine injection was measured at a dose of 0.05 mmol/kg. Type of series: functional.
Series [16] relates to Mus musculus. Put plainly: Stimulation of spontaneous locomotor activity of compound was measured in mice at a dose of 0.15 mmol/kg). Type of series: functional.
The test system of series [17] is Mus musculus. The experiment in a line: Stimulation of spontaneous locomotor activity of compound was measured in mice at a dose of 0.30 mmol/kg). The class given is functional.
Series [18] concerns Mus musculus. Put plainly: Modification of circling behavior in mice with unilateral striatal lesions produced by 6-hydroxydopamine injection was measured at a dose of 0.027 mmol/kg. The class given is functional.
Series [19] concerns Mus musculus. Put plainly: Stimulation of spontaneous locomotor activity of compound was measured in mice at a dose of 0.02 mmol/kg). The class given is functional.
Series [20] deals with Mus musculus. The experiment in a line: Stimulation of spontaneous locomotor activity of compound was measured in mice at a dose of 0.04 mmol/kg). The class given is functional.
Series [21] relates to Mus musculus. Put plainly: Stimulation of spontaneous locomotor activity of compound was measured in mice at a dose of 0.01 mmol/kg). Type of series: functional.
The subject of series [22] is Mus musculus. Put plainly: Stimulation of spontaneous locomotor activity of compound was measured in mice at a dose of 0.4 mmol/kg); Lethal. The class given is functional, organism-based.
Series [23] concerns Mus musculus. Put plainly: Modification of circling behavior in mice with unilateral striatal lesions produced by 6-hydroxydopamine injection was measured at a dose of 0.1 mmol/kg. Type of series: functional.

The logP is a log measure of how a compound divides between an organic and an aqueous phase.

Turning to `NC12CC3CC(CC(C3)C1)C2` [AMANTADINE], the Activity in the series with Mus musculus [1] stood at 87; in the series with Mus musculus [2], 201; in the series on Mus musculus [5] it was 44; in the series on Mus musculus [6] it was 243. Besides, in series [3], the logP was found to be 2.44. The same molecule came in with a Net turns/min in the series on Mus musculus [4] of 1.1.
`CN1CCc2cccc3c2[C@H]1Cc1ccc(O)c(O)c1-3` [APOMORPHINE]: in the series on Mus musculus [7], the Net turns/min was 2.6.
On to `CC12CC3CC(C)(C1)CC(N)(C3)C2` [MEMANTINE], for which the Net turns/min is 2.6 in the series with Mus musculus [8], 2.6 with Mus musculus [12], 4.3 with Mus musculus [13] and 1 with Mus musculus [15]. The Activity amounted to 181 with Mus musculus [9]; 377 in the series on Mus musculus [1]; 916 with Mus musculus [10]; 1378 in the series with Mus musculus [11]; 264 with Mus musculus [14].
Consider `CCCC12CC3CC(CC(N)(C3)C1)C2`, for which the Activity amounted to 75 with Mus musculus [1], 94 in the series with Mus musculus [10] and 75 in the series on Mus musculus [14]. In addition, in [3], the logP came to 3.76.
For `CCC12CC3CC(CC(N)(C3)C1)C2`, the Net turns/min in the series on Mus musculus [8] is reported as 1.2; with Mus musculus [12], 1.2; with Mus musculus [13], 2; with Mus musculus [15], 1.3. For the same molecule, the Activity worked out at 147 with Mus musculus [1]; 237 in the series with Mus musculus [10]; 522 in the series on Mus musculus [11]; 432 in the series on Mus musculus [16]; 61 with Mus musculus [14]; 368 in the series with Mus musculus [17]. The same molecule gave a logP in series [3] of 3.4.
`CC(N)Cc1ccccc1` (stereo not drawn) [AMPHETAMINE] came in with a Net turns/min in the series with Mus musculus [18] of 5.5. The values for the Activity in the series with Mus musculus [19], in the series with Mus musculus [20] and with Mus musculus [21] were 562, 993 and 177, respectively.
On to `CCC12CC3CC(N)(C1)CC(CC)(C3)C2`, for which the Activity with Mus musculus [1] amounted to 383; with Mus musculus [10] it was 716; in the series on Mus musculus [11], 478; with Mus musculus [14] it was 154. In addition, in series [3], the logP was found to be 4.36. Also, the Net turns/min in the series on Mus musculus [12] was 1.6.
Take `CC12CC3CC(C1)CC(N)(C3)C2`: the Activity with Mus musculus [1] came to 37; in the series on Mus musculus [2], 144; in the series with Mus musculus [6], 383. In addition, the logP in [3] is 3.01.
Regarding `CC12CC3(C)CC(C)(C1)CC(N)(C2)C3`, the Activity in the series on Mus musculus [1] was 264; with Mus musculus [2] it was 351; in the series with Mus musculus [22], “Lethal”; in the series on Mus musculus [14], 148; in the series on Mus musculus [6] it was 472. Also, in [3], the logP was 4.01. The Net turns/min in the series on Mus musculus [13] is 1.2; in the series with Mus musculus [23] it was 1.
